Measurements as given in ChEMBL document CHEMBL1201862, “PubChem BioAssay data set” (2004).
The source made the active and inactive calls.

Assays:
[1] = target: G-protein coupled receptor 55 (Homo sapiens, UniProt Q9Y2T6); assay: GPR55 agonists via beta-arrestin recruitment, primary screen, imaging, U2OS cells, beta-arrestin-GFP redistribution (AID 1961); format: functional
[2] = target: Peroxisome proliferator-activated receptor gamma/Nuclear receptor coactivator 1 (Homo sapiens, UniProt P37231); format: functional;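 note: agonist potency as compounds enhance coactivator SRC-1 recruitment to PPARgamma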
[3] = target: Peroxisome proliferator-activated receptor gamma/Nuclear receptor coactivator 2 (Homo sapiens, UniProt P37231); format: functional;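 note: agonist potency for raising coactivator recruitment to the receptor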
[4] = target: Peroxisome proliferator-activated receptor gamma/Nuclear receptor coactivator 3 (Homo sapiens, UniProt P37231); format: functional;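 note: agonist potency for raising coactivator recruitment to the receptor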
[5] = target: T1, Hexokinase (Trypanosoma brucei, UniProt Q38C41); assay: Confirmation assay for inhibitors of Trypanosoma brucei hexokinase 1-Analogue-first series. [Related pubchem assays (depositor defined):AID1430, AID1632, AID2516, AID2560, AID2579, AID2600, AID449725, AID492951]; format: functional
T1 sequence (Q38C41 whole entry): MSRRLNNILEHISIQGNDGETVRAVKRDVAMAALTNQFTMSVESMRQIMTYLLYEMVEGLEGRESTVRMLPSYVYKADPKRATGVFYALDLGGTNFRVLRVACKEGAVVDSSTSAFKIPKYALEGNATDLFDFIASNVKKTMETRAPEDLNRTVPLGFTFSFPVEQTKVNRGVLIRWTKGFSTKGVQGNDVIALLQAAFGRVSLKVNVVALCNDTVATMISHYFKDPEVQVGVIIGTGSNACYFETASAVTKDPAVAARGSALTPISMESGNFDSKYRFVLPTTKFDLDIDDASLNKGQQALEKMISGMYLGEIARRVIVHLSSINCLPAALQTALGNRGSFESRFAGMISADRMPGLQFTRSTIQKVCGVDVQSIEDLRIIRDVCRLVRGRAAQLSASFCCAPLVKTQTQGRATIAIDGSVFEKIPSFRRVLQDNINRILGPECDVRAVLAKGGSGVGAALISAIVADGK

[6] = target: T2, Beta-galactosidase (Escherichia coli, UniProt Q8VNN2); assay: beta-galactosidase enzyme inhibitors and activators, dose response, artefact control for CCR6 antagonist project, biochemical, E. coli enzyme, set 3 (AID 504712); format: functional
[7] = target: T3, Heat shock factor protein 1 (Mus musculus, UniProt P38532); assay: inhibition of MG132-induced HSE-luciferase signal, confirmation, cell-based, NIH3T3, luminescence, dose retest (AID 2382); format: functional;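 note: NIH3T3 fibroblasts with HSF1-driven luciferase reporter stressed by proteasome inhibitor MG132; luminescence from HSF1-driven luciferase expression after 8 hours of MG132 stress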
T3 sequence (P38532 whole entry): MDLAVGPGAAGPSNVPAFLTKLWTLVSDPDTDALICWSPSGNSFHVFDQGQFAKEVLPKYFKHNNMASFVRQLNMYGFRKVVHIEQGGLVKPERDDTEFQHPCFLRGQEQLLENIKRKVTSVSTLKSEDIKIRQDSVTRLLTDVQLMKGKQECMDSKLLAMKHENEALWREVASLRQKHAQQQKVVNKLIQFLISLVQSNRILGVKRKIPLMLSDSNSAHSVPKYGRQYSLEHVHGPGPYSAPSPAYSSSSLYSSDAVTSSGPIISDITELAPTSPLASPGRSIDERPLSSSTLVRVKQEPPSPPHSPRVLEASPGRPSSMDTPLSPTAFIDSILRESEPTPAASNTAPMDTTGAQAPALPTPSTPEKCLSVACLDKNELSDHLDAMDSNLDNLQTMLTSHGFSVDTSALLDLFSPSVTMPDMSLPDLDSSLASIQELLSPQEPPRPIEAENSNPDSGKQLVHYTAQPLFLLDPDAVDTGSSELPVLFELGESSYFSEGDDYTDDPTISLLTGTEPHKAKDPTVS

[8] = target: T4, Nucleotide-binding oligomerization domain-containing protein 1 (Homo sapiens, UniProt Q9Y239); assay: NOD1 signaling inhibitors, SAR follow-up, revised (AID 2333); format: functional
T4 sequence (Q9Y239 whole entry): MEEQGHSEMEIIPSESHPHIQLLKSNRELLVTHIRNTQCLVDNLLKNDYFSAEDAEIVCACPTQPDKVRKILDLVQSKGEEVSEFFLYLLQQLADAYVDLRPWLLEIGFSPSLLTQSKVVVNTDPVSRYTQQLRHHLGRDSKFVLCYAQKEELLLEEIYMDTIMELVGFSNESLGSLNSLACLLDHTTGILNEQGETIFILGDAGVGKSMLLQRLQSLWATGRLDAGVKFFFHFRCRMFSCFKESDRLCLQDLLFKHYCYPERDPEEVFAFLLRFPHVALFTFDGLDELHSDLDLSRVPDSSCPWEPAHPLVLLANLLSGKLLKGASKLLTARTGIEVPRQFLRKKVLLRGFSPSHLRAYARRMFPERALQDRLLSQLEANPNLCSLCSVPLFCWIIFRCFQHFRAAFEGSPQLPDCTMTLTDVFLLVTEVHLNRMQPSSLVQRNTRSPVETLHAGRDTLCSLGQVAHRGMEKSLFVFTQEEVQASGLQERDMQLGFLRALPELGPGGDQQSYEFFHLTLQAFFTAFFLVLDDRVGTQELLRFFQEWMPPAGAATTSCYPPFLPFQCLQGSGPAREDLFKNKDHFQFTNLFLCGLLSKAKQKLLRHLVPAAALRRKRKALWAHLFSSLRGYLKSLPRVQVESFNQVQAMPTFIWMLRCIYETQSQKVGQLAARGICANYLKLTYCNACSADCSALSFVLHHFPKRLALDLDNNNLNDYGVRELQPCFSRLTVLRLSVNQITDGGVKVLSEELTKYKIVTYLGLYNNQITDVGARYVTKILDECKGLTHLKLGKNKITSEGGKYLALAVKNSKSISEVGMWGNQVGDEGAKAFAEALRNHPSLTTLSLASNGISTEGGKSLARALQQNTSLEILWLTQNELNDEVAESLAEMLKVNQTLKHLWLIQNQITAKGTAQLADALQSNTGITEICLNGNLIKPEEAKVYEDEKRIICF

[9] = target: Tumor necrosis factor (Homo sapiens, UniProt P01375); assay: TNFa-triggered NF-kB activation inhibitors, SAR follow-up, cell-based, revised (AID 2337); format: functional
[10] = system: HEK293; assay: cells; details: Homo sapiens;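 note: cells exposed to compound for 14 hours overnight before viability readout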
[11] = target: Nucleotide-binding oligomerization domain-containing protein 2 (Homo sapiens, UniProt Q9HC29); assay: PubChem AID 2334; format: functional
[12] = target: T5, Alkaline phosphatase, tissue-nonspecific isozyme (Homo sapiens, UniProt P05186); assay: human TNAP enzyme inhibitors, SAR follow-up, biochemical, luminescent, dose response (AID 1056)
T5 sequence (P05186 whole entry): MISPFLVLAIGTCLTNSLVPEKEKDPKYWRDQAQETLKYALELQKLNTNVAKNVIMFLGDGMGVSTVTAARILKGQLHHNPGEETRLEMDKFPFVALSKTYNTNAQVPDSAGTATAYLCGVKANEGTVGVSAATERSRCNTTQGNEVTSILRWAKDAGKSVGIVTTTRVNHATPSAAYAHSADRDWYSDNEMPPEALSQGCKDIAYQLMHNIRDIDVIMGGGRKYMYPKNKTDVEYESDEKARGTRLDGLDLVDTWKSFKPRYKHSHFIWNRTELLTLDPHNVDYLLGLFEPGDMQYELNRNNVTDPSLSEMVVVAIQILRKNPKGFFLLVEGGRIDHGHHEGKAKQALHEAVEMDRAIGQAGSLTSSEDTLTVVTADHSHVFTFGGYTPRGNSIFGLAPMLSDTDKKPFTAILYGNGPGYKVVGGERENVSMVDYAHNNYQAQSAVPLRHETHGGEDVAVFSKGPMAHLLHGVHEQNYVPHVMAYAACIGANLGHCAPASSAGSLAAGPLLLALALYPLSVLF

[13] = target: Glyceraldehyde-3-phosphate dehydrogenase (Homo sapiens, UniProt P04406)
[14] = target: Alkaline phosphatase, placental type (Homo sapiens, UniProt P05187); assay: PLAP enzyme inhibitors, confirmation, biochemical, luminescence (AID 1512); format: functional
[15] = target: T2, Beta-galactosidase; format: functional
[16] = target: T6, Kappa-type opioid receptor (Homo sapiens, UniProt P41145); format: functional
[17] = target: T6, Kappa-type opioid receptor; format: functional; remark: listed apart in the source
[18] = target: T7, Insulin-degrading enzyme (Homo sapiens, UniProt P14735); assay: Dose Response: Fluorescence polarization-based cell-based high throughput dose response assay for inhibitors of insulin-degrading enzyme (IDE). [Related pubchem assays: 434962 (Primary screen (IDE inhibitors in singlicate)), 449730 (Counterscreen (Cytotoxicity in triplicate)), 435028 (Confirmation (IDE inhibitors in triplicate)), 434984 (Summary …; format: functional
T7 sequence (P14735 whole entry): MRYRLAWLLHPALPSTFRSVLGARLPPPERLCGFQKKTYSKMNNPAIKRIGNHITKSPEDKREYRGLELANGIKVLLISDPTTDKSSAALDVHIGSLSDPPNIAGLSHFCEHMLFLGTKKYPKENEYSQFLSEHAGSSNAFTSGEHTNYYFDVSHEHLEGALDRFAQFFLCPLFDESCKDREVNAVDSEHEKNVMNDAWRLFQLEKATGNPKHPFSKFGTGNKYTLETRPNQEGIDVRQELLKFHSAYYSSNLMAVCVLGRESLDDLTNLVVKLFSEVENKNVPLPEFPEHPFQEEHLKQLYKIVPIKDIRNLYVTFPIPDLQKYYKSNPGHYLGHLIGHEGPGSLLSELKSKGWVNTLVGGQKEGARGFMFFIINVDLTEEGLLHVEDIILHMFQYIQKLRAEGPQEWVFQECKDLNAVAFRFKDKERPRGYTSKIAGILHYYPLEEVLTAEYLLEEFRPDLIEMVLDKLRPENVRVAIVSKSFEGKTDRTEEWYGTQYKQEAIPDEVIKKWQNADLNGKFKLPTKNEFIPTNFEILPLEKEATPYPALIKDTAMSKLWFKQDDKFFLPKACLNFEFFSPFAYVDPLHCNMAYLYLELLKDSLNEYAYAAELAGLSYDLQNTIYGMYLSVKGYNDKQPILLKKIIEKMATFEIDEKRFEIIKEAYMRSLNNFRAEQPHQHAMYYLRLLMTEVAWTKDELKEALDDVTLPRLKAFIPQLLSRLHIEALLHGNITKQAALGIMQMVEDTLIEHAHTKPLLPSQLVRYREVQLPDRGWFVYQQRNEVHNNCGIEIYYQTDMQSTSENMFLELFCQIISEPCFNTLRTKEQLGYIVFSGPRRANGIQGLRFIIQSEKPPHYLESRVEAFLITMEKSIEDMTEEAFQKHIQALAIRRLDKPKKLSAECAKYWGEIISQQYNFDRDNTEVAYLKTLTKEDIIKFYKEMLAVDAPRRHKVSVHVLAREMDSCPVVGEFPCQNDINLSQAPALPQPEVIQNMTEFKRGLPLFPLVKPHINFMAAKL

[19] = Counterscreen for IDE inhibitors: Luminescence-based cell-based high throughput dose response assay to identify compounds that are cytotoxic to HEK cells. [Related pubchem assays: 434962 (Primary screen (IDE inhibitors in singlicate)), 449730 (Counterscreen (Cytotoxicity in triplicate)), 435028 (Confirmation (IDE inhibitors in triplicate)) …; format: functional; details: HEK293

Nucleotide-binding oligomerization domain-containing protein 2, sequence (Q9HC29 whole entry, the tested form may be a part): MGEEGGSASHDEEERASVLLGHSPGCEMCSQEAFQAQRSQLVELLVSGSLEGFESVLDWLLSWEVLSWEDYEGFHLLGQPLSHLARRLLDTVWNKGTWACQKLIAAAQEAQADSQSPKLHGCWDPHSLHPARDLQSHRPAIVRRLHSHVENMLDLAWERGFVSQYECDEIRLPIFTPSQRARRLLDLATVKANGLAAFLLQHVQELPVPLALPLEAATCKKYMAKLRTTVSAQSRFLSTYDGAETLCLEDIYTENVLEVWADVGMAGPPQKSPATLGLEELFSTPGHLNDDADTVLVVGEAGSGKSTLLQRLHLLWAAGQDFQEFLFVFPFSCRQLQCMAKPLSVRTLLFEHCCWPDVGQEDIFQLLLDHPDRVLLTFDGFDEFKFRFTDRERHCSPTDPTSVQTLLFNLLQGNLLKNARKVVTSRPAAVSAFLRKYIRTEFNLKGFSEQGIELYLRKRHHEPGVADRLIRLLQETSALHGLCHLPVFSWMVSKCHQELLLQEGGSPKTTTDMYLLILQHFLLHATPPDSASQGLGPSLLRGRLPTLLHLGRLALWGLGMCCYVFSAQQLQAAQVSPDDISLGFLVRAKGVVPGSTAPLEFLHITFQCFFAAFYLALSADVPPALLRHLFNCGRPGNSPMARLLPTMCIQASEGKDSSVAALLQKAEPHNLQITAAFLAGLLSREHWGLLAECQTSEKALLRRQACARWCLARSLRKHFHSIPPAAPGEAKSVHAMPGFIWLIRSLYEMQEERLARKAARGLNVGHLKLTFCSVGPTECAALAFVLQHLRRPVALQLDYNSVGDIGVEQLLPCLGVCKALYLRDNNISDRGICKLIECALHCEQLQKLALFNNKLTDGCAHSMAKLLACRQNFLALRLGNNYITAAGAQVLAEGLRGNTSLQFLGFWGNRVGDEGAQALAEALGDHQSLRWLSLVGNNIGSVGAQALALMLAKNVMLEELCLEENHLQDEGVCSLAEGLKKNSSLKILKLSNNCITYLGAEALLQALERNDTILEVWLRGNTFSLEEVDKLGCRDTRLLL
Tumor necrosis factor, sequence (P01375 whole entry): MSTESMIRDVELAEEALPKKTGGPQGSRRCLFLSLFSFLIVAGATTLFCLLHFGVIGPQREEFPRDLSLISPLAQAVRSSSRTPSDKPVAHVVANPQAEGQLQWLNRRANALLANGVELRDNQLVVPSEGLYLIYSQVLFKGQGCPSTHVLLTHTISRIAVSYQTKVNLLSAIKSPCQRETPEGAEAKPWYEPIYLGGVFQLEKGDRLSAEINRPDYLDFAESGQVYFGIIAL
G-protein coupled receptor 55, sequence (Q9Y2T6 whole entry): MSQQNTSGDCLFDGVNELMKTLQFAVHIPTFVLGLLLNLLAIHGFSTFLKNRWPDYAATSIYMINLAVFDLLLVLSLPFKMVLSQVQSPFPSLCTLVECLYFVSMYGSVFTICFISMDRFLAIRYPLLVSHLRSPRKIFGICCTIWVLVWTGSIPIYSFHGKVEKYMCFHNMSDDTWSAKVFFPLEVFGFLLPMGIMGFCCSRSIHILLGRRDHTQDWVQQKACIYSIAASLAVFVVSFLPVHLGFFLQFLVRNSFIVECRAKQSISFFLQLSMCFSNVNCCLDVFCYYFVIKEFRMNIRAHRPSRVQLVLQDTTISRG
Peroxisome proliferator-activated receptor gamma/Nuclear receptor coactivator 1, sequence (P37231 whole entry): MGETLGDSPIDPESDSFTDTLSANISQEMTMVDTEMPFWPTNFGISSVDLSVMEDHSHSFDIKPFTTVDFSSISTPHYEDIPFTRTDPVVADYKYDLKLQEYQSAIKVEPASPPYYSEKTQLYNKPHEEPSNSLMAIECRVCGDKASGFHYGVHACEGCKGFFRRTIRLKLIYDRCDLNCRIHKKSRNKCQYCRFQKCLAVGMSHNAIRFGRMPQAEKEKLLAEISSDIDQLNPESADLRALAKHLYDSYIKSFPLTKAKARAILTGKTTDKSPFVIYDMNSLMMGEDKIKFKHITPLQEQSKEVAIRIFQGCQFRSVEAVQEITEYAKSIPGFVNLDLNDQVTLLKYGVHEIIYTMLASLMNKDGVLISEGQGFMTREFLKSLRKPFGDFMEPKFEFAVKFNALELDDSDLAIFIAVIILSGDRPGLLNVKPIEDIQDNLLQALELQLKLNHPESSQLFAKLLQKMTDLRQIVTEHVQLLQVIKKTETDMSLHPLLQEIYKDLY
Peroxisome proliferator-activated receptor gamma/Nuclear receptor coactivator 1, sequence (Q15788 whole entry, further chain): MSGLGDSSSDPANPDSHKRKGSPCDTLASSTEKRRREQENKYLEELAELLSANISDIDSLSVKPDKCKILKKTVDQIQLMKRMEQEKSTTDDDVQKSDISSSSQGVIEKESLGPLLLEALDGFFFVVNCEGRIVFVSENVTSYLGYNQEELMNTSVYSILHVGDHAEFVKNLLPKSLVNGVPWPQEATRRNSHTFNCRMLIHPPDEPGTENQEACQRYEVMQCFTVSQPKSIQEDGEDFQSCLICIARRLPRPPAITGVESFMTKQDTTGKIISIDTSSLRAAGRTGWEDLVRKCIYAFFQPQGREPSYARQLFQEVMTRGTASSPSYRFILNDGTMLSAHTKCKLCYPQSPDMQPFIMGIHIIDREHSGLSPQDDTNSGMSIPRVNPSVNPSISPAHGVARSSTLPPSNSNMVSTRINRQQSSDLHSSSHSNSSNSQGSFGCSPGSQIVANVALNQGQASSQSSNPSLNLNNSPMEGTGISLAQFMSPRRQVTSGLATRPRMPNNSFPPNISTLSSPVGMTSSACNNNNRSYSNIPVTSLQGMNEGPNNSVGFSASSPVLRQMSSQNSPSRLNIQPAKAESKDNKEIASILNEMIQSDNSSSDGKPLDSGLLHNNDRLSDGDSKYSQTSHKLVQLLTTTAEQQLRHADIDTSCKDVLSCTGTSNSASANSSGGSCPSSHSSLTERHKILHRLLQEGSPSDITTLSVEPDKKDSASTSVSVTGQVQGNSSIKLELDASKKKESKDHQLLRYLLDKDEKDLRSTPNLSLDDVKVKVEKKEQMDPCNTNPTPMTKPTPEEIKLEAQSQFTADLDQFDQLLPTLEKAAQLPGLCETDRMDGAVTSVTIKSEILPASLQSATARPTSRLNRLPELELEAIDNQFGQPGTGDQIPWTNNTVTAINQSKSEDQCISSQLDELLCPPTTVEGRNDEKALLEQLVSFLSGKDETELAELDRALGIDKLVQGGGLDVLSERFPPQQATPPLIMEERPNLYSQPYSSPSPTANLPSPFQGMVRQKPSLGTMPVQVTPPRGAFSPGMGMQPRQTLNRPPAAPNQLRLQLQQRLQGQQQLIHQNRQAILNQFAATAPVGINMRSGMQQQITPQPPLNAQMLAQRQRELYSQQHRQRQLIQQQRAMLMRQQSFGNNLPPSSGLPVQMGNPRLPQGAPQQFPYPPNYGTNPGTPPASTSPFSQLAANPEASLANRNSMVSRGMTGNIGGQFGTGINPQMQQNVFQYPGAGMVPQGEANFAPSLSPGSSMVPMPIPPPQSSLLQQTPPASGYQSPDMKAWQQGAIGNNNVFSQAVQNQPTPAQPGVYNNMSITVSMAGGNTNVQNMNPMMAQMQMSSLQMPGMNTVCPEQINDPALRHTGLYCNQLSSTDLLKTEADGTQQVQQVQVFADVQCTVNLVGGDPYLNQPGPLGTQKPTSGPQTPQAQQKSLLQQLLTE
Glyceraldehyde-3-phosphate dehydrogenase, sequence (P04406 whole entry): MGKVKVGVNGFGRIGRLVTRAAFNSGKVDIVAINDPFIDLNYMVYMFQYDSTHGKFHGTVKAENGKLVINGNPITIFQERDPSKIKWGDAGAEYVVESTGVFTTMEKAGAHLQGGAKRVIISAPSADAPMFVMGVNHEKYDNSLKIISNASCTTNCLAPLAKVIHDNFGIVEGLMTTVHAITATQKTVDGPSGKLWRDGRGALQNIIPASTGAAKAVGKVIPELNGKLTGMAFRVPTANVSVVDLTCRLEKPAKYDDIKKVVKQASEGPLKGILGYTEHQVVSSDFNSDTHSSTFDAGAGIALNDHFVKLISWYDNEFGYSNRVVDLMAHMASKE
T2 sequence (Q8VNN2 whole entry): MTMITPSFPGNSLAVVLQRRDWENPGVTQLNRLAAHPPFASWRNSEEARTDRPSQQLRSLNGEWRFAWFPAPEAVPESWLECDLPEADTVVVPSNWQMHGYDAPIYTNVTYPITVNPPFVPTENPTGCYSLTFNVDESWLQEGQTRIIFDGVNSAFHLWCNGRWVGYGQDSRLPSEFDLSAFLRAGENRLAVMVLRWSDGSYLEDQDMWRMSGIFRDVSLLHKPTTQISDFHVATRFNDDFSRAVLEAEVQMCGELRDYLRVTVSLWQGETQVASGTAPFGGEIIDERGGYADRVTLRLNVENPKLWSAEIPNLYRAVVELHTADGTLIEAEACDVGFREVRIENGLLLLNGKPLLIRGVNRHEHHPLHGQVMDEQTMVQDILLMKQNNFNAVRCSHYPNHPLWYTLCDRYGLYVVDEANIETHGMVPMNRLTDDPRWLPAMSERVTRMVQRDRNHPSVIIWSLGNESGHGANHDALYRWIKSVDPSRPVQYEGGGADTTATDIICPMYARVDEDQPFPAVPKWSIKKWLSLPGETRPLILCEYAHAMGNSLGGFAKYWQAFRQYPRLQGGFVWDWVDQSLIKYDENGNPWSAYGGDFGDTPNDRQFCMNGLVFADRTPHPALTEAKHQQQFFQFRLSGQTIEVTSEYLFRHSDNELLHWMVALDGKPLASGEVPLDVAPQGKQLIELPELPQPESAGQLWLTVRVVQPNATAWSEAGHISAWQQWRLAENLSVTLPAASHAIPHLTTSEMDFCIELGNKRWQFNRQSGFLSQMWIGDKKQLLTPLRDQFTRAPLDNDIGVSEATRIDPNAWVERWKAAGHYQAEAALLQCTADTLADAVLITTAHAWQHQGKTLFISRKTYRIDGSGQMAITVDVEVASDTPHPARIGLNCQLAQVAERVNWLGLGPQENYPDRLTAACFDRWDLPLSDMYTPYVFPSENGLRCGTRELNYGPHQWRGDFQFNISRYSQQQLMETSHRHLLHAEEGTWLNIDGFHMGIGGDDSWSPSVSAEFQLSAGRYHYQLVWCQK

SMILES: CN1/C(=C\C(=O)COC(=O)c2ccccc2O)C(C)(C)c2ccccc21
- EC50 [1]: 1.67 µM (active)

SMILES: COc1ccccc1CNC(=O)c1oc2ccccc2c1C
- EC50 [1]: 3.85 µM (active)

SMILES: Cc1occc1C(=O)N/N=C/c1ccc(Br)s1
- EC50 [2]: > 79.4 µM (not active)
- EC50 [3]: > 79.4 µM (not active)
- EC50 [4]: > 79.4 µM (not active)

SMILES: COc1ccc(C(=O)Nc2cc(F)ccc2C(=O)O)cc1
- IC50 [5]: 24.8 µM (active)

SMILES: O=C(Cc1ccccc1)Nc1cccc(N2C(=O)C=CC2=O)c1
- IC50 [6]: > 66.6 µM (inactive)
- EC50 [7]: 19 µM (active)

SMILES: CCOc1ccc(C(=O)NC2CCCc3c2cnn3-c2ccccc2F)cc1 (centres undefined)
- IC50 [8]: 12.8 µM (active)
- IC50 [9]: > 20 µM (inactive)
- IC50 [10]: > 20 µM (inactive)
- IC50 [11]: 18.5 µM (active)

SMILES: Cc1cc(C)c(S(=O)(=O)Nc2cnc3ccccc3c2)c(C)c1
- IC50 [12]: > 100 µM (inactive)
- IC50 [13]: > 100 µM (not active)

SMILES: COc1ccccc1Cn1c(SCC(=O)C(C)(C)C)nc2cc(C(=O)N3CCC4(CC3)OCCO4)ccc2c1=O
- EC50 [1]: 4.58 µM (active)

SMILES: O=C(c1cc(-c2cc(F)c(Cl)cc2Cl)n[nH]1)N1CCOCC1
- IC50 [12]: 3.37 µM (active)
- IC50 [13]: > 100 µM (not active)
- IC50 [14]: > 100 µM (inactive)

SMILES: O=C1/C(=C\c2ccc(O)cc2)SC(=S)N1c1cccnc1
- EC50 [15]: 14.6 µM (active)
- IC50 [16]: > 32 µM
- IC50 [17]: 11.4 µM (active)

SMILES: O=c1c2ccccc2[s+]([O-])n1-c1cccc(F)c1 (centres undefined)
- IC50 [5]: > 25 µM (inactive)

SMILES: CCc1cc(C(=O)NC2CCCc3c2cnn3-c2ccccc2F)no1 (centres undefined)
- IC50 [8]: 17.5 µM (active)
- IC50 [9]: > 20 µM (inactive)
- IC50 [10]: > 20 µM (inactive)
- IC50 [11]: > 20 µM (inactive)

SMILES: O=C(c1ccco1)N1CCN(c2ccnc3cc(Cl)ccc23)CC1
- IC50 [18]: > 18.6 µM (not active)
- IC50 [19]: 18.2 µM (not active)

SMILES: O=C(Nc1ccc([N+](=O)[O-])cc1)/C(=C/c1cccc([N+](=O)[O-])c1)NC(=O)C1CCCCC1
- EC50 [2]: > 79.4 µM (not active)
- EC50 [3]: > 79.4 µM (not active)
- EC50 [4]: > 79.4 µM (not active)

SMILES: COc1ccc2sn(-c3ccccc3)c(=O)c2c1
- IC50 [5]: 3.22 µM (active)

SMILES: O=S(=O)(c1ccccc1)c1nc(-c2ccco2)oc1N1CCOCC1
- EC50 [2]: 85.1 µM (not active)
- EC50 [3]: > 79.4 µM (not active)
- EC50 [4]: > 79.4 µM (not active)

SMILES: Cn1nccc1C(=O)N[C@H]1CCCc2c1cnn2-c1ccccc1F
- IC50 [8]: 0.781 µM (active)
- IC50 [9]: 0.994 µM (active)
- IC50 [10]: > 20 µM (inactive)
- IC50 [11]: 1.12 µM (active)
